Counter-ions that a name gives are not always drawn. Like-named read-outs stand apart in the source and are kept apart here.
Key:
Assay type in all cases: cell-based
[1] = system: tetracycline resistant strains containing the tetM resistance determinant; assay: in vitro antibacterial evaluation, tetM strains; conditions: S. aureus UBMS 88-5, 90-1 and 90-2, E. coli UBMS 89-1 and 90-4
susceptible strains = assay: in vitro antibacterial evaluation, susceptible strains; conditions: vs minocycline
E. coli UBMS 88-1 Tet B = assay: microbe, parasite or virus in culture; conditions: Escherichia coli, UBMS881TETB, 18 h, 18 hours at 35° C.
E. coli J3272 Tet sens = assay: MIC, agar dilution method; conditions: Escherichia coli, J3272TETSENS, 18 hours at 35° C.
E. coli PRP1 Tet A = assay: microbe, parasite or virus in culture; conditions: Escherichia coli, PRP1TETA, 18 h, 18 hours at 35° C.
[2] = system: E. coli MC 4100 TNIOC Tet B; assay: microbe, parasite or virus in culture; conditions: Escherichia coli, 18 h, 18 hours at 35° C.
E. coli J3272 Tet C = assay: microbe, parasite or virus in culture; conditions: Escherichia coli, J3272TETC, 18 h
E. coli UBMS 89-1 Tet M = assay: microbe, parasite or virus in culture; conditions: Escherichia coli, UBMS891TETM, 18 h, 18 hours at 35° C.
[3] = system: E. coli UBMS 89-2 Tet sens; assay: MIC, agar dilution method; conditions: Escherichia coli, UBMS892TETSENS, 18 h, 18 hours at 35° C., read-out: MIC
E. coli J2175 = assay: MIC, agar dilution method; conditions: Escherichia coli, 18 hours at 35° C., read-out: MIC
E. coli BAJ9003 IMP MUT = assay: microbe, parasite or virus in culture; conditions: 18 hours at 35° C.
E. coli UBMS 90-4 Tet M = assay: microbe, parasite or virus in culture; conditions: Escherichia coli, UBMS904TETM, 18 h, 18 hours at 35° C.
E. coli UBMS 90-5 sens = assay: MIC, agar dilution method; conditions: Escherichia coli, UBMS905SENS, 18 hours at 35° C., read-out: MIC
E. coli #311 (MP) = assay: MIC, agar dilution method; conditions: Escherichia coli, 18 hours at 35° C., read-out: MIC
E. coli ATCC 25922 = assay: MIC, agar dilution method; conditions: Escherichia coli, ATCC25922, 18 hours at 35° C., read-out: MIC
E. coli J3272 Tet D = assay: microbe, parasite or virus in culture; conditions: Escherichia coli, J3272TETD, 18 h
S. mariescens FPOR 8733 = assay: MIC, agar dilution method; conditions: 18 h, 18 hours at 35° C.
[4] = system: X. maltophilia NEMC 87210; assay: MIC, agar dilution method; conditions: Stenotrophomonas maltophilia, NEMC87210, 18 h, 18 hours at 35° C.
[5] = system: Ps. acruginosa ATCC 27853; assay: MIC, agar dilution method
S. aureus NEMC 8769 = assay: MIC, agar dilution method; conditions: Staphylococcus aureus, NEMC8769, 18 h
S. aureus UBMS 88-4 = assay: MIC, agar dilution method; conditions: Staphylococcus aureus, UBMS884, 18 hours at 35° C., read-out: MIC
[6] = system: S. aureus UBMS 88-5 Tet M; assay: microbe, parasite or virus in culture; conditions: Staphylococcus aureus, UBMS885TETM, 18 h
[7] = system: S. aureus UBMS 88-7 Tet K; assay: microbe, parasite or virus in culture; conditions: 18 hours at 35° C.
[8] = system: S. aureus UBMS 90-1 Tet M; assay: microbe, parasite or virus in culture; conditions: 18 hours at 35° C.
S. aureus UBMS 90-3 = assay: MIC, agar dilution method; conditions: Staphylococcus aureus
[9] = system: S. aureus UBMS 90-2 Tet M; assay: microbe, parasite or virus in culture; conditions: Staphylococcus aureus, UBMS902TETM, 18 h, 18 hours at 35° C.
S. aureus IVES 2943 = assay: MIC, agar dilution method; conditions: Staphylococcus aureus
S. aureus ROSE (MP) = assay: MIC, agar dilution method; conditions: 18 hours at 35° C.
S. aureus SMITH (MP) = assay: MIC, agar dilution method; conditions: 18 hours at 35° C.
S. aureus IVES 1 983 = assay: MIC, agar dilution method; conditions: Staphylococcus aureus
S. aureus ATCC 29213 = assay: MIC, agar dilution method; conditions: 18 hours at 35° C.
[10] = system: S. hemolyticus AVHAH 88-3; assay: MIC, agar dilution method; conditions: Streptococcus pyogenes, AVHAH883, 18 h, 18 hours at 35° C.
Enterococcus 12201 = assay: MIC, agar dilution method; conditions: 18 hours at 35° C.
E. faecalis ATCC 29212 = assay: MIC, agar dilution method; conditions: Enterococcus faecalis
[11] = system: E. coli MC 4100 Tet sens.; assay: MIC, agar dilution method; conditions: Escherichia coli, 18 hours at 35° C., read-out: MIC
[12] = Ps. acruginosa ATCC 27853, 18 hours at 35° C., read-out: MIC
[13] = Escherichia coli, BAJ9003IMPMUT, 18 h
[14] = Staphylococcus aureus, UBMS887TETK, 18 h
[15] = Staphylococcus aureus, UBMS901TETM, 18 h
[16] = Staphylococcus aureus, read-out: MIC
[17] = Staphylococcus aureus, ATCC29213, 18 h
[18] = ATCC29212, 18 h, 18 hours at 35° C.

CN(C)CC(=O)Nc1c(Cl)cc2c(c1O)C(=O)C1=C(O)[C@]3(O)C(=O)C(C(N)=O)=C(O)[C@@H](N(C)C)C3CC1C2 (some centres unmarked) [8-chloro-9-(N,N-dimethylglycylamido)-6-demethyl-6-deoxytetracycline]
in vitro activity against tetracycline resistant strains containing the tetM resistance determinant [1]: good in vitro activity | effectiveness against susceptible strains compared with minocycline (susceptible strains): equally as effective as minocycline

CN(C)CC(=O)Nc1c(Cl)cc2c(c1O)C(=O)C1=C(O)[C@]3(O)C(=O)C(C(N)=O)=C(O)[C@@H](N(C)C)C3CC1C2 (stereo partly drawn) [A, [4S-(4α,12aα)]-8-Chloro-4-(dimethylamino)-9-[[(dimethylamino)acetyl]amino]-1,4,4a,5,5a,6,11,12a-octahydro-3,10,12,12a-tetrahydroxy-1,11-dioxo-2-naphthacenecarboxamide disulfate]
MIC (E. coli UBMS 88-1 Tet B): 2 µg/mL | MIC (E. coli J3272 Tet sens): 1 µg/mL | MIC (E. coli PRP1 Tet A): 4 µg/mL | MIC [2]: 2 µg/mL | MIC (E. coli J3272 Tet C): 8 µg/mL | MIC (E. coli UBMS 89-1 Tet M): 0.5 µg/mL | MIC [3]: 2 µg/mL | MIC (E. coli J2175): 1 µg/mL | MIC (E. coli BAJ9003 IMP MUT): 0.25 µg/mL | MIC (E. coli UBMS 90-4 Tet M): 1 µg/mL | MIC (E. coli UBMS 90-5 sens): 1 µg/mL | MIC (E. coli #311 (MP)): 0.5 µg/mL | MIC (E. coli ATCC 25922): 0.5 µg/mL | MIC (E. coli J3272 Tet D): 0.5 µg/mL | MIC (S. mariescens FPOR 8733): 16 µg/mL | MIC [4]: 2 µg/mL | MIC [5, 12]: > 32 µg/mL | MIC (S. aureus NEMC 8769; S. aureus NEMC 8769, 18 hours at 35° C.): 0.06 µg/mL | MIC (S. aureus UBMS 88-4): 0.12 µg/mL | MIC [6]: 0.25 µg/mL | MIC [7]: 2 µg/mL | MIC [8]: 0.5 µg/mL | MIC (S. aureus UBMS 90-3; UBMS903, S. aureus UBMS 90-3, 18 hours at 35° C., read-out: MIC): 0.12 µg/mL | MIC [9]: 0.5 µg/mL | MIC (S. aureus IVES 2943; IVES2943, 18 h): 4 µg/mL | MIC (S. aureus ROSE (MP)): 16 µg/mL | MIC (S. aureus SMITH (MP)): 0.25 µg/mL | MIC (S. aureus IVES 1 983; IVES1983, 18 h): 4 µg/mL | MIC (S. aureus ATCC 29213): 0.03 µg/mL | MIC [10]: 1 µg/mL | MIC (Enterococcus 12201): 0.25 µg/mL | MIC (E. faecalis ATCC 29212; ATCC29212, 18 hours at 35° C., read-out: MIC): 0.12 µg/mL

CCCCCNCC(=O)Nc1c(Cl)cc2c(c1O)C(=O)C1=C(O)[C@]3(O)C(=O)C(C(N)=O)=C(O)[C@@H](N(C)C)C3CC1C2 (stereo partly drawn) [H, [4S-(4α,12aα)]-8-Chloro-4-(dimethylamino)-1,4,4a,5,5a,6,11,12a-octahydro-3, 10,12,12a-tetrahydroxy-1,11-dioxo-9-[[(pentylamino)acetyl]amino]-2-naphthacenecarboxamide dihydrochloride]
MIC (E. coli UBMS 88-1 Tet B): 2 µg/mL | MIC [11]: 0.25 µg/mL | MIC (E. coli PRP1 Tet A): 2 µg/mL | MIC [2]: 2 µg/mL | MIC (E. coli J3272 Tet C): 2 µg/mL | MIC (E. coli UBMS 89-1 Tet M): 0.5 µg/mL | MIC [3]: 2 µg/mL | MIC (E. coli J2175): 2 µg/mL | MIC (E. coli BAJ9003 IMP MUT; [13]): 0.25 µg/mL | MIC (E. coli UBMS 90-4 Tet M): 2 µg/mL | MIC (E. coli UBMS 90-5 sens): 2 µg/mL | MIC (E. coli #311 (MP)): 2 µg/mL | MIC (E. coli ATCC 25922): 2 µg/mL | MIC (E. coli J3272 Tet D): 1 µg/mL | MIC (S. mariescens FPOR 8733): 16 µg/mL | MIC [4]: 4 µg/mL | MIC [5, 12]: > 32 µg/mL | MIC (S. aureus NEMC 8769): 0.5 µg/mL | MIC (S. aureus UBMS 88-4): 0.5 µg/mL | MIC [6]: 1 µg/mL | MIC [7, 14]: 4 µg/mL | MIC [8, 15]: 2 µg/mL | MIC (S. aureus UBMS 90-3; UBMS903, 18 h): 0.25 µg/mL | MIC [9]: 0.25 µg/mL | MIC (S. aureus IVES 2943; IVES2943, 18 h): 8 µg/mL | MIC (S. aureus ROSE (MP); Staphylococcus aureus, 18 h): 8 µg/mL | MIC (S. aureus SMITH (MP); [16]): 0.5 µg/mL | MIC (S. aureus IVES 1 983; IVES1983, 18 h): 4 µg/mL | MIC (S. aureus ATCC 29213; [17]): 0.5 µg/mL | MIC [10]: 4 µg/mL | MIC (Enterococcus 12201; Enterococcus, 12201, 18 h): 0.25 µg/mL | MIC (E. faecalis ATCC 29212; [18]): 0.12 µg/mL

CNCC(=O)Nc1c(Cl)cc2c(c1O)C(=O)C1=C(O)[C@]3(O)C(=O)C(C(N)=O)=C(O)[C@@H](N(C)C)C3CC1C2 (stereo partly drawn) [I, [4S-(4α,12aα)]-8-Chloro-4-(dimethylamino)-1,4,4a,5,5a,6,11,12a-octahydro-3, 10,12,12a-tetrahydroxy-1,11-dioxo-9-[[(methylamino)acetyl]amino]-2-naphthacenecarboxamide dihydrochloride]
MIC (E. coli UBMS 88-1 Tet B): 1 µg/mL | MIC [11]: 0.25 µg/mL | MIC (E. coli PRP1 Tet A): 16 µg/mL | MIC [2]: 1 µg/mL | MIC (E. coli J3272 Tet C): 16 µg/mL | MIC (E. coli UBMS 89-1 Tet M): 2 µg/mL | MIC [3]: 2 µg/mL | MIC (E. coli J2175): 1 µg/mL | MIC (E. coli BAJ9003 IMP MUT; [13]): 0.25 µg/mL | MIC (E. coli UBMS 90-4 Tet M): 1 µg/mL | MIC (E. coli UBMS 90-5 sens): 1 µg/mL | MIC (E. coli #311 (MP)): 2 µg/mL | MIC (E. coli ATCC 25922): 1 µg/mL | MIC (E. coli J3272 Tet D): 1 µg/mL | MIC (S. mariescens FPOR 8733): 16 µg/mL | MIC [4]: 16 µg/mL | MIC ([5]; 18 h): 16 µg/mL | MIC (S. aureus NEMC 8769): 0.5 µg/mL | MIC (S. aureus UBMS 88-4): 0.5 µg/mL | MIC [6]: 0.5 µg/mL | MIC [7, 14]: > 32 µg/mL | MIC [8, 15]: 0.5 µg/mL | MIC (S. aureus UBMS 90-3; UBMS903, 18 h): 0.5 µg/mL | MIC [9]: 0.5 µg/mL | MIC (S. aureus IVES 2943; IVES2943, S. aureus IVES 2943, 18 hours at 35° C., read-out: MIC): > 32 µg/mL | MIC (S. aureus ROSE (MP); [16]): > 32 µg/mL | MIC (S. aureus SMITH (MP); [16]): 0.5 µg/mL | MIC (S. aureus IVES 1 983; IVES1983, S. aureus IVES 1 983, 18 hours at 35° C., read-out: MIC): > 32 µg/mL | MIC (S. aureus ATCC 29213; [17]): 0.5 µg/mL | MIC [10]: 2 µg/mL | MIC (Enterococcus 12201; Enterococcus, 12201, 18 h): 0.5 µg/mL | MIC (E. faecalis ATCC 29212; [18]): 0.25 µg/mL

Reference: patent US5495032A, “Process for producing 7-(substituted)-8-(substituted-9-[(substituted glycyl)amido]-6-demethyl-6-deoxytetracyclines” (priority 1994, dated 1996)
